This is an account of results in US20260092071A1, “COMPOUNDS AND COMPOSITIONS AS SMARCA2/4 DEGRADERS AND USES THEREOF” (REGENTS OF THE UNIVERSITY OF MICHIGAN, priority 2022, published 2026).

Molecules are shown by their SMILES. Bounds are passed on as bounds.

For assay [1], the target named is SMARCA4 (Homo sapiens, UniProt P51532). Description: HiBit assay in engineered HT1080 CRISPR knock-in cell, 6 hrs (B series), SMARCA4. In kind it is cell-based. Conditions: 6 hrs incubation; for DC50: HT1080 CRISPR knock-in cells, read-out: SMARC A4 HT1080 HiBit DC50; for Dmax: HT-1080, HT1080 CRISPR knock-in cells, read-out: SMARC A4 HT1080 HiBit Dmax(%). In short, it runs like this:
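HT1080 CRISPR knock-in cells carrying the HiBiT tag were seeded onto compounds (final DMSO 0.1%) and incubated 6 hrs at 37° C, 5% CO2. Remaining tagged protein was detected by lytic HiBiT luminescence after adding LgBiT protein and substrate, with LgBiT-free wells serving as negative control.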
A general note: HiBiT is a short tag that completes a luciferase, so light tracks the accessible tagged protein.

For assay [2], the target named is SMARCA2 (Homo sapiens, UniProt P51531). Description: HiBit assay in engineered HT1080 CRISPR knock-in cell, 6 hrs (B series), SMARCA2. In kind it is cell-based. The settings on record: 6 hrs incubation; for DC50: HT1080 CRISPR knock-in cells, read-out: SMARC A2 HT1080 HiBit DC50; for Dmax: HT-1080, HT1080 CRISPR knock-in cells, read-out: SMARC A2 HT1080 HiBit Dmax (%). In short, it runs like this: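 Using a 6 hr treatment window at 37° C and 5% CO2, tagged HT1080 knock-in cells were exposed to test compounds with DMSO vehicle held at 0.1%. Signal came from lytic LgBiT/substrate reagent added after incubation, with control wells lacking LgBiT, and was read as luminescence.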
SMARCA2, sequence (P51531 whole entry): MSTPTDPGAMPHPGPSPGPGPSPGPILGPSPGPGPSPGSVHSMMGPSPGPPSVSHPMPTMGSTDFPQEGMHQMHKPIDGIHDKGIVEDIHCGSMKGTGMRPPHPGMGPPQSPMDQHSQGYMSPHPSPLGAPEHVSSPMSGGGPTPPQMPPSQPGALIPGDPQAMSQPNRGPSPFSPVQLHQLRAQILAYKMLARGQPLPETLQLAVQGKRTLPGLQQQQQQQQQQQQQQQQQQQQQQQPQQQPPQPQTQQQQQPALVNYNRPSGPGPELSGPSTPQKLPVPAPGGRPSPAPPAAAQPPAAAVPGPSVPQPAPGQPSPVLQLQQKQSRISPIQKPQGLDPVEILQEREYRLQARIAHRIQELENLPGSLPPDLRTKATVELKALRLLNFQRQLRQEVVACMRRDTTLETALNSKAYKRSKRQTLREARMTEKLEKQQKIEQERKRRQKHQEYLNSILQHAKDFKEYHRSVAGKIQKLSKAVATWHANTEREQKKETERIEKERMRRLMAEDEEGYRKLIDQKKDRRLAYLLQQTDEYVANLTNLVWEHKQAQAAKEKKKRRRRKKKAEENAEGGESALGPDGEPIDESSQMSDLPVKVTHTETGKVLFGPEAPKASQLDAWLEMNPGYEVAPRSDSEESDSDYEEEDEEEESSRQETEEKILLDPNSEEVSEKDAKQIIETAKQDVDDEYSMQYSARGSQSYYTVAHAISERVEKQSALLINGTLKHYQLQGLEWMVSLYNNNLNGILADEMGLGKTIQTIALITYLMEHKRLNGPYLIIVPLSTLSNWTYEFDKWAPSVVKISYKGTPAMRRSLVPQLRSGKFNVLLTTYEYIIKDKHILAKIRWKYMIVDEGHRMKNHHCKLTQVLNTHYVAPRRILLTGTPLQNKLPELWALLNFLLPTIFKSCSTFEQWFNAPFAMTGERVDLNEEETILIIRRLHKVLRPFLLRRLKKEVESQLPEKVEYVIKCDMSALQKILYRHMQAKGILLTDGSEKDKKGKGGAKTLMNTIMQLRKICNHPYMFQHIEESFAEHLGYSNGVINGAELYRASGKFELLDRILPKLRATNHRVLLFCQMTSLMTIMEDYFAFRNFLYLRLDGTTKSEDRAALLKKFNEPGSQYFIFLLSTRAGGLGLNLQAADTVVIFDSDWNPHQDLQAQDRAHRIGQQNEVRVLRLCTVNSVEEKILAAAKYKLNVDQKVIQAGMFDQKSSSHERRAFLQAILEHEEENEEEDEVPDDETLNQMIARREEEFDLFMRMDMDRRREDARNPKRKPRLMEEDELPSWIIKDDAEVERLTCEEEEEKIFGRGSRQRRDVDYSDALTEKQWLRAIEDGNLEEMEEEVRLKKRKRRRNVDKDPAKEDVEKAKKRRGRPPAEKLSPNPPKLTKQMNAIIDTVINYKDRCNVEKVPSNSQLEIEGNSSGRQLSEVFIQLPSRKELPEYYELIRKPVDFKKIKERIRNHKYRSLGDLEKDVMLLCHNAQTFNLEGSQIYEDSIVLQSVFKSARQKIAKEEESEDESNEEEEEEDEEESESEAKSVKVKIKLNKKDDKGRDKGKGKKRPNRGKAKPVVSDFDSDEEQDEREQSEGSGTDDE

SMARCA4, sequence (P51532 whole entry): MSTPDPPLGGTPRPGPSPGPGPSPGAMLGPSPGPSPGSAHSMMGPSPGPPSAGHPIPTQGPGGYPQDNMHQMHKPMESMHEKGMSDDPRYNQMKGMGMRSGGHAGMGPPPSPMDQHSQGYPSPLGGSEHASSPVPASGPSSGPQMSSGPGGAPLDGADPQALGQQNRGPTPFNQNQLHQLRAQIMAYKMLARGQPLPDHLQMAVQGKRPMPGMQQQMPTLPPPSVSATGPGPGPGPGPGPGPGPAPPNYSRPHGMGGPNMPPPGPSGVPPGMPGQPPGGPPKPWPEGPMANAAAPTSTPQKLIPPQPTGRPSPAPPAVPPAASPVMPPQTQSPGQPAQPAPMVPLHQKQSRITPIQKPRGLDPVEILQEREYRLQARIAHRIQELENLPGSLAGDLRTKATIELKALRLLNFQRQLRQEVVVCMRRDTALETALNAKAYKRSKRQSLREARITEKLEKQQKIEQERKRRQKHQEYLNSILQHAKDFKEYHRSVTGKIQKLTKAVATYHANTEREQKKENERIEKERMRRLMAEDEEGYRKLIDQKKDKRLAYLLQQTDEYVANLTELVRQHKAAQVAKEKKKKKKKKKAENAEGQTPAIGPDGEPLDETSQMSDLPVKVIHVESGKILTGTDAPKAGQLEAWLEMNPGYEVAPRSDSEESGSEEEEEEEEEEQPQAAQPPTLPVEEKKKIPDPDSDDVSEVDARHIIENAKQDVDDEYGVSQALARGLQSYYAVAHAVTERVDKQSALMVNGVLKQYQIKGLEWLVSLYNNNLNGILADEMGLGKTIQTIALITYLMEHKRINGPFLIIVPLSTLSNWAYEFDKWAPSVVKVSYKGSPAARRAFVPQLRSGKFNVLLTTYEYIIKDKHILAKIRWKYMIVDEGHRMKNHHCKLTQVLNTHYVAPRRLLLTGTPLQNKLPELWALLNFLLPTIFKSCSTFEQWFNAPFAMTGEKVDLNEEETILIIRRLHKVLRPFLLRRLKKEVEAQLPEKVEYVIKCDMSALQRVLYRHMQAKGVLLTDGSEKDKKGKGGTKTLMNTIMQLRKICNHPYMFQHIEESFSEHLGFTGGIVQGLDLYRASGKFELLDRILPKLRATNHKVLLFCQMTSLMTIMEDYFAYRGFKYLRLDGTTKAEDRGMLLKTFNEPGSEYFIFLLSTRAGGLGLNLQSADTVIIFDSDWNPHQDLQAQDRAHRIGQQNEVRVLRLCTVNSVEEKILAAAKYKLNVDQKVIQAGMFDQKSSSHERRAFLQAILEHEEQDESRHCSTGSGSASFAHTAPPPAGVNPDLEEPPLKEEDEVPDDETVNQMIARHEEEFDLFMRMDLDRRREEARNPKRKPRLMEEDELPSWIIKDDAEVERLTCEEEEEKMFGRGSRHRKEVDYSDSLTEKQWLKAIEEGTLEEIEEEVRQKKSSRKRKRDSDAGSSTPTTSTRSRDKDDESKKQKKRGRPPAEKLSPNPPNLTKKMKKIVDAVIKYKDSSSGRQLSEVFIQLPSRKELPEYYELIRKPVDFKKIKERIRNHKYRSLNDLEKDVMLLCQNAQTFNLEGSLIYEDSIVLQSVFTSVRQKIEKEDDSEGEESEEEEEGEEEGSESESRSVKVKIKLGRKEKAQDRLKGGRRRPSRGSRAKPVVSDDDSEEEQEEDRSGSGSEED

With `Cc1ncsc1-c1ccc(CNC(=O)[C@@H]2C[C@@H](O)CN2C(=O)[C@@H](NC(=O)C2(F)CC2)C(C)(C)C)c(OCCCCN2CCC(c3ccc4c(c3)-n3c(nc(=O)c5c(Cl)cccc53)C4(C)C)CC2)c1` [Compound B35, (2S,4R)—N-(2-(4-(4-(4-chloro-7,7-dimethyl-5-oxo-5,7-dihydroindolo[1,2-a]quinazolin-10-yl)piperidin-1-yl)butoxy)-4-(4-methylthiazol-5-yl)benzyl)-1-((S)-2-(1-fluorocyclopropane-1-carboxamido)-3,3-dimethylbutanoyl)-4-hydroxypyrrolidine-2-carboxamide], the DC50 in assay [1] and in assay [2] was < 100 nM in each case. Besides, the Dmax in assay [1] and in assay [2] was > 90% in each case.

Take `Cc1ncsc1-c1ccc([C@H](C)NC(=O)[C@@H]2C[C@@H](O)CN2C(=O)[C@H](C(C)C)n2cc(CCCCN3CCC(c4ccc5c(c4)-n4c(nc(=O)c6c(Cl)cccc64)C5(C)C)CC3)nn2)cc1` [Compound B73, (2S,4R)-1-((S)-2-(4-(4-(4-(4-chloro-7,7-dimethyl-5-oxo-5,7-dihydroindolo[1,2-a]quinazolin-10-yl)piperidin-1-yl)butyl)-1H-1,2,3-triazol-1-yl)-3-methylbutanoyl)-4-hydroxy-N-((S)-1-(4-(4-methylthiazol-5-yl)phenyl)ethyl)pyrrolidine-2-carboxamide]: in assay [1], the DC50 is 100 to 500 nM and the Dmax was in the range of 70 to 90%. Moreover, in assay [2], the DC50 was < 100 nM and the Dmax was > 90%.

Consider `C[C@H](NC(=O)[C@@H]1C[C@@H](O)CN1C(=O)[C@@H](n1cc([C@H]2CC[C@H](CN3CCC(c4ccc5c(c4)-n4c(nc(=O)c6c(Cl)cccc64)C5(C)C)CC3)CC2)nn1)C(C)(C)C)c1ccc(-c2scnc2Cl)cc1` [Compound B117, (2S,4R)-1-((S)-2-(4-((1r,4S)-4-((4-(4-chloro-7,7-dimethyl-5-oxo-5,7-dihydroindolo[1,2-a]quinazolin-10-yl)piperidin-1-yl)methyl)cyclohexyl)-1H-1,2,3-triazol-1-yl)-3,3-dimethylbutanoyl)-N-((S)-1-(4-(4-chlorothiazol-5-yl)phenyl)ethyl)-4-hydroxypyrrolidine-2-carboxamide], for which, in assay [1], the DC50 was 100 to 500 nM and the Dmax was 50 to 69%. In assay [2], the DC50 is < 100 nM and the Dmax was > 90%.

Consider `Cc1ncsc1-c1ccc([C@H](C)NC(=O)[C@@H]2C[C@@H](O)CN2C(=O)[C@@H](c2cc(OCC3(CN4CCC(c5ccc6c(c5)C(C)(C)c5nc(=O)c7c(Cl)cccc7n5-6)CC4)CC3)no2)C(C)C)cc1` [Compound B82, (2S,4R)-1-((R)-2-(3-((1-((4-(4-chloro-7,7-dimethyl-5-oxo-5,7-dihydroindolo[1,2-a]quinazolin-9-yl)piperidin-1-yl)methyl)cyclopropyl)methoxy)isoxazol-5-yl)-3-methylbutanoyl)-4-hydroxy-N-((S)-1-(4-(4-methylthiazol-5-yl)phenyl)ethyl)pyrrolidine-2-carboxamide], for which, in assay [1], the DC50 was < 100 nM and the Dmax lay in the range of 50 to 69%. In addition, in assay [2], the DC50 is < 100 nM and the Dmax is 70 to 90%.

On to `Cc1ncsc1-c1ccc2c(NC(=O)[C@@H]3C[C@@H](O)CN3C(=O)[C@@H](n3cc([C@H]4CC[C@H](CN5CCC(c6ccc7c(c6)-n6c(nc(=O)c8c(Cl)cccc86)C7(C)C)CC5)CC4)nn3)C(C)(C)C)nccc2c1` [Compound B143, (2S,4R)-1-((S)-2-(4-((1r,4S)-4-((4-(4-chloro-7,7-dimethyl-5-oxo-5,7-dihydroindolo[1,2-a]quinazolin-10-yl)piperidin-1-yl)methyl)cyclohexyl)-1H-1,2,3-triazol-1-yl)-3,3-dimethylbutanoyl)-4-hydroxy-N-(6-(4-methylthiazol-5-yl)isoquinolin-1-yl)pyrrolidine-2-carboxamide], for which the DC50 in assay [1] was > 1000 nM; in assay [2], 100 to 500 nM. In addition, the Dmax in assay [1] was < 50%; in assay [2], 70 to 90%.

Turning to `Cc1ncsc1-c1ccc([C@H](C)NC(=O)[C@@H]2C[C@@H](O)CN2C(=O)[C@@H](c2cc(OCCCCN3CCC(c4ccc5c(c4)-n4c(nc(=O)c6c(Cl)cccc64)C5(C)C)CC3)no2)C(C)C)cc1` [Compound B27, (2S,4R)-1-((R)-2-(3-(4-(4-(4-chloro-7,7-dimethyl-5-oxo-5,7-dihydroindolo[1,2-a]quinazolin-10-yl)piperidin-1-yl)butoxy)isoxazol-5-yl)-3-methylbutanoyl)-4-hydroxy-N-((S)-1-(4-(4-methylthiazol-5-yl)phenyl)ethyl)pyrrolidine-2-carboxamide], in assay [1], the DC50 was < 100 nM and the Dmax was in the range of 70 to 90%. In addition, in assay [2], the DC50 is < 100 nM and the Dmax was > 90%.

As to `Cc1ncsc1-c1ccc([C@H](C)NC(=O)[C@@H]2C[C@@H](O)CN2C(=O)[C@@H](NC(=O)C23CC(CN4CCC(c5ccc6c(c5)C(C)(C)c5nc(=O)c7c(Cl)cccc7n5-6)CC4)(C2)C3)C(C)(C)C)cc1` [Compound B23, (2S,4R)-1-((S)-2-(3-((4-(4-chloro-7,7-dimethyl-5-oxo-5,7-dihydroindolo[1,2-a]quinazolin-9-yl)piperidin-1-yl)methyl)bicyclo[1.1.1]pentane-1-carboxamido)-3,3-dimethylbutanoyl)-4-hydroxy-N-((S)-1-(4-(4-methylthiazol-5-yl)phenyl)ethyl)pyrrolidine-2-carboxamide], in assay [1], the DC50 was < 100 nM and the Dmax was 70 to 90%. Also, in assay [2], the DC50 was < 100 nM and the Dmax is > 90%.

Regarding `C[C@H](NC(=O)[C@@H]1C[C@@H](O)CN1C(=O)[C@@H](n1cc(C2CCC(CN3CCN(c4ccc5c(c4)-n4c(nc(=O)c6c(Cl)cccc64)C54CCCCC4)CC3)CC2)nn1)C(C)(C)C)c1ccc(-c2scnc2C#CCN2CCOCC2)cc1` (stereo partly drawn) [Compound B140, (2S,4R)-1-((S)-2-(4-((1s,4R)-4-((4-(4′-chloro-5′-oxo-5′H-spiro[cyclohexane-1,7′-indolo[1,2-a]quinazolin]-10′-yl)piperazin-1-yl)methyl)cyclohexyl)-1H-1,2,3-triazol-1-yl)-3,3-dimethylbutanoyl)-4-hydroxy-N-((S)-1-(4-(4-(3-morpholinoprop-1-yn-1-yl)thiazol-5-yl)phenyl)ethyl)pyrrolidine-2-carboxamide], in assay [1], the DC50 was < 100 nM and the Dmax lay in the range of 50 to 69%. In assay [2], the DC50 was < 100 nM and the Dmax was > 90%.

For the compound `Cc1ncsc1-c1ccc([C@H](C)NC(=O)C2C[C@@H](O)CN2C(=O)[C@@H](c2cc(OCCCCN3CCC(c4cccc5c4C(C)(C)c4nc(=O)c6c(Cl)cccc6n4-5)CC3)no2)C(C)C)cc1` (stereo in doubt) [Compound B98, (2S,4R)-1-(2-(3-(4-(4-(4-chloro-7,7-dimethyl-5-oxo-5,7-dihydroindolo[1,2-a]quinazolin-8-yl)piperidin-1-yl)butoxy)isoxazol-5-yl)-3-methylbutanoyl)-4-hydroxy-N-((S)-1-(4-(4-methylthiazol-5-yl)phenyl)ethyl)pyrrolidine-2-carboxamide], the DC50 was 100 to 500 nM in assay [1] and < 100 nM in assay [2]. Further, the Dmax in assay [1] is < 50%; in assay [2], 70 to 90%.
